Laboratory results taken from patent publication US8883782B2, “Spiro-tetracyclic ring compounds as beta-secretase modulators and methods of use” (Amgen Inc., priority 2010, dated 2014).
Like-named read-outs stand apart in the source and are kept apart here.

Tests used:
[1] = tested on: Aβ40 in conditioned medium of cells stably expressing Amyloid Precursor Protein (APP); assay: In vitro BACE cell-based assay (Aβ40 in conditioned medium, sandwich ELISA); conditions: Homo sapiens
Method in brief: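 Conditioned medium from stably APP-expressing cells treated with compound dose series is assayed for Aβ40 by sandwich ELISA with time-resolved fluorescence detection. IC50 is calculated from percent inhibition of Aβ40 against compound concentration.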

[2] = biological target: Beta Secretase enzyme (BACE) (Homo sapiens, UniProt P56817); assay: In vitro enzymatic BACE FRET (fluorescence resonance energy transfer) assay; type: biochemical
Method in brief: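 Buffer 0.05 M acetate pH 4.2, 10% DMSO final, 100 uM genapol (sub-CMC); start with 50 nM FRET substrate; 1 h incubation; Tris stop; fluorescence read.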

[3] = HEK293, average IC50, read-out: HEK cell assay
[4] = average IC50, enzyme assay, read-out: BACE 1 FRET assay

Beta Secretase enzyme (BACE), sequence (P56817 46-501, species assumed): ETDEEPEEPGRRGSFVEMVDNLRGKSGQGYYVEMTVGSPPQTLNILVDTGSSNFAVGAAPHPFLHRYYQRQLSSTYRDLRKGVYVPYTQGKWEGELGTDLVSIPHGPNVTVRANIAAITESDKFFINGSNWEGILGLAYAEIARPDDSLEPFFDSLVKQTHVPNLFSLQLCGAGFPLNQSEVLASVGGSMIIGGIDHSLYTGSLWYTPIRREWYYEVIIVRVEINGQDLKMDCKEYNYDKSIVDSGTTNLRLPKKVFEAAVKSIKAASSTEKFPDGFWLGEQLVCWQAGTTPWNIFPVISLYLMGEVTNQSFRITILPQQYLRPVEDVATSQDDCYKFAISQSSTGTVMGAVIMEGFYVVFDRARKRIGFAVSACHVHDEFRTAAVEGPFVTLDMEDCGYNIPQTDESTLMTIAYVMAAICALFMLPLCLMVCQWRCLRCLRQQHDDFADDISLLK

IC50 [1, 3] | IC50 [2, 4] | Structure (SMILES) | IC50 ([1]; HEK293, read-out: HEK cell assay (uM), average IC50, HEK cell assay) | IC50 ([2]; BACE 1 FRET assay (uM))
0.0077 µM | 0.0011 µM | NC1=N[C@@]2(CO1)c1cc(-c3cccnc3F)ccc1Oc1c(F)cc(-c3ccncc3)cc12 [Example 203, (4S)-4′-fluoro-7′-(2-fluoro-3-pyridinyl)-2′-(4-pyridinyl)spiro[1,3-oxazole-4,9′-xanthen]-2-amine] |  | 
0.0045 µM | 0.0005 µM | CC(C)(C#N)COc1cc(F)c2c(c1)[C@]1(COC(N)=N1)c1cc(-c3cncc(Cl)c3)ccc1O2 [Example 204, 3-(((4S)-2-amino-7′-(5-chloro-3-pyridinyl)-4′-fluorospiro[1,3-oxazole-4,9′-xanthen]-2′-yl)oxy)-2,2-dimethylpropanenitrile] |  | 
0.0101 µM | 0.0016 µM | NC1=N[C@@]2(CO1)c1cc(-c3cccnc3F)ccc1Oc1c(F)cc(-c3cnccn3)cc12 [Example 205, (4S)-4′-fluoro-7′-(2-fluoro-3-pyridinyl)-2′-(2-pyrazinyl)spiro[1,3-oxazole-4,9′-xanthen]-2-amine] |  | 
0.0024 µM | 0.0007 µM | CC1(COc2cc(F)c3c(c2)[C@]2(COC(N)=N2)c2cc(-c4cncc(Cl)c4)ccc2O3)COC1 [Example 206, (4S)-7′-(5-chloro-3-pyridinyl)-4′-fluoro-2′-((3-methyl-3-oxetanyl)methoxy)spiro[1,3-oxazole-4,9′-xanthen]-2-amine] |  | 
0.0314 µM | 0.0075 µM | COCCN(C)c1cc(F)c2c(c1)[C@]1(COC(N)=N1)c1cc(-c3cccnc3F)ccc1O2 [Example 207, (4S)-4′-fluoro-7′-(2-fluoro-3-pyridinyl)-N~2~′-(2-methoxyethyl)-N~2~′-methylspiro[1,3-oxazole-4,9′-xanthene]-2,2′-diamine] |  | 
0.0038 µM | 0.0008 µM | NC1=N[C@@]2(CO1)c1cc(-c3cncc(Cl)c3)ccc1Oc1c(F)cc(N3CCOCC3)cc12 [Example 208, (4S)-7′-(5-chloro-3-pyridinyl)-4′-fluoro-2′-(4-morpholinyl)spiro[1,3-oxazole-4,9′-xanthen]-2-amine] |  | 
0.209 µM | 0.249 µM | NC1=N[C@@]2(CO1)c1cc(-c3cncc(N4CCOCC4)c3)ccc1Oc1c(F)cc(N3CCOCC3)cc12 [Example 209, (4S)-4′-fluoro-2′-(4-morpholinyl)-7′-(5-(4-morpholinyl)-3-pyridinyl)spiro[1,3-oxazole-4,9′-xanthen]-2-amine] |  | 
 |  | NC1=N[C@@]2(CO1)c1cc(-c3cncc(Cl)c3)ccc1Oc1c(F)cc(C3=CCOCC3)cc12 [Example 210, (4S)-7′-(5-chloro-3-pyridinyl)-2′-(3,6-dihydro-2H-pyran-4-yl)-4′-fluorospiro[1,3-oxazole-4,9′-xanthen]-2-amine] | 0.003 µM | 0.0003 µM
0.0082 µM | 0.0006 µM | NC1=N[C@@]2(CO1)c1cc(-c3cncc(Cl)c3)ccc1Oc1c(F)cc(OCC3CCOCC3)cc12 [Example 211, (4S)-7′-(5-chloro-3-pyridinyl)-4′-fluoro-2′-(tetrahydro-2H-pyran-4-ylmethoxy)spiro[1,3-oxazole-4,9′-xanthen]-2-amine] |  | 
0.0113 µM | 0.0014 µM | NC1=N[C@@]2(CO1)c1cc(-c3cccnc3F)ccc1Oc1c(F)cc(-c3ccncn3)cc12 [Example 212, (4S)-4′-fluoro-7′-(2-fluoro-3-pyridinyl)-2′-(4-pyrimidinyl)spiro[1,3-oxazole-4,9′-xanthen]-2-amine] |  | 
0.0216 µM | 0.0027 µM | COc1ncc(-c2cc(F)c3c(c2)[C@]2(COC(N)=N2)c2cc(-c4cccnc4F)ccc2O3)cn1 [Example 213, (4S)-4′-fluoro-7′-(2-fluoro-3-pyridinyl)-2′-(2-methoxy-5-pyrimidinyl)spiro[1,3-oxazole-4,9′-xanthen]-2-amine] |  | 
0.0187 µM | 0.0028 µM | NC1=N[C@@]2(CO1)c1cc(-c3cccnc3F)ccc1Oc1c(F)cc(-c3cncnc3)cc12 [Example 214, (4S)-4′-fluoro-7′-(2-fluoro-3-pyridinyl)-2′-(5-pyrimidinyl)spiro[1,3-oxazole-4,9′-xanthen]-2-amine] |  | 
1.08 µM | 0.0414 µM | COc1cc(F)c2c(c1)[C@@]1(CSC(N)=N1)c1cc(-c3cnccn3)ccc1O2 [Example 222, (4R)-4′-fluoro-2′-methoxy-7′-(2-pyrazinyl)spiro[1,3-thiazole-4,9′-xanthen]-2-amine] |  | 
0.0071 µM | 0.0014 µM | Cc1ccc(-c2cc3c(cn2)Oc2ccc(-c4cncc(Cl)c4)cc2[C@@]32COC(N)=N2)cn1 [Example 227, (5S)-7-(5-chloro-3-pyridinyl)-3-(6-methyl-3-pyridinyl)spiro[chromeno[2,3-c]pyridine-5,4′-[1,3]oxazol]-2′-amine] |  | 
0.014 µM | 0.0025 µM | Cc1cc(-c2ccc3c(c2)[C@@]2(COC(N)=N2)c2cc(C4=CCOCC4)ncc2O3)cnc1F [Example 228, (5S)-3-(3,6-dihydro-2H-pyran-4-yl)-7-(6-fluoro-5-methyl-3-pyridinyl)spiro[chromeno[2,3-c]pyridine-5,4′-[1,3]oxazol]-2′-amine] |  | 
0.0604 µM | 0.0128 µM | Cc1cc(-c2ccc3c(c2)[C@@]2(COC(N)=N2)c2cc(-c4ccncc4)ncc2O3)cnc1F [Example 229, (5S)-7-(6-fluoro-5-methyl-3-pyridinyl)-3-(4-pyridinyl)spiro[chromeno[2,3-c]pyridine-5,4′-[1,3]oxazol]-2′-amine] |  | 
0.0363 µM | 0.0081 µM | Cc1cc(-c2ccc3c(c2)[C@@]2(COC(N)=N2)c2cc(-c4cccnc4)ncc2O3)cnc1F [Example 230, (5S)-7-(6-fluoro-5-methyl-3-pyridinyl)-3-(3-pyridinyl)spiro[chromeno[2,3-c]pyridine-5,4′-[1,3]oxazol]-2′-amine] |  | 
0.106 µM | 0.034 µM | NC1=N[C@@]2(CO1)c1cc(-c3cncc(C4=CCOCC4)c3)ccc1Oc1cnc(C3=CCOCC3)cc12 [Example 231, (5S)-3-(3,6-dihydro-2H-pyran-4-yl)-7-(5-(3,6-dihydro-2H-pyran-4-yl)-3-pyridinyl)spiro[chromeno[2,3-c]pyridine-5,4′-[1,3]oxazol]-2′-amine] |  | 
0.0074 µM | 0.0013 µM | Cn1cc(-c2cc3c(cn2)Oc2ccc(-c4cncc(Cl)c4)cc2[C@@]32COC(N)=N2)cn1 [Example 232, (5S)-7-(5-chloro-3-pyridinyl)-3-(1-methyl-1H-pyrazol-4-yl)spiro[chromeno[2,3-c]pyridine-5,4′-[1,3]oxazol]-2′-amine] |  | 
0.092 µM | 0.028 µM | Cn1cc(-c2cncc(-c3ccc4c(c3)[C@@]3(COC(N)=N3)c3cc(-c5cnn(C)c5)ncc3O4)c2)cn1 [Example 233, (5S)-3-(1-methyl-1H-pyrazol-4-yl)-7-(5-(1-methyl-1H-pyrazol-4-yl)-3-pyridinyl)spiro[chromeno[2,3-c]pyridine-5,4′-[1,3]oxazol]-2′-amine] |  | 
4.28 µM | 0.49 µM | NC1=N[C@]2(CO1)c1cc(-c3cccc(Cl)c3)ccc1Oc1cnc(C3=CCOCC3)cc12 [Example 234, (5R)-7-(3-chlorophenyl)-3-(3,6-dihydro-2H-pyran-4-yl)spiro[chromeno[2,3-c]pyridine-5,4′-[1,3]oxazol]-2′-amine] |  | 
0.0147 µM | 0.0012 µM | COc1ncc(Cl)cc1-c1ccc2c(c1)[C@@]1(COC(N)=N1)c1cc(C3=CCOCC3)ncc1O2 [Example 235, (5S)-7-(5-chloro-2-methoxy-3-pyridinyl)-3-(3,6-dihydro-2H-pyran-4-yl)spiro[chromeno[2,3-c]pyridine-5,4′-[1,3]oxazol]-2′-amine] |  | 
